Assay results taken from ChEMBL document CHEMBL3046666, “Design, synthesis, and biological evaluation of benzofuran derivatives as ET receptor antagonists” (Med Chem Res, 2013).
The source made the active and inactive calls. The rule behind the calls is not given here. Square brackets hold non-standard residues; d marks the D form. Peptide text beside a SMILES is read from it.

Key:
[1] = biological target: T1, Endothelin-1 receptor (Rattus norvegicus) (UniProt P26684); experiment: Antagonist activity at ETA receptor in Sprague-Dawley Rattus norvegicus (rat) thoracic aortic ring assessed as inhibition of ET1-induced thoracic aortic ring contraction at 10 uM after 30 min relative to control
T1 sequence (whole entry): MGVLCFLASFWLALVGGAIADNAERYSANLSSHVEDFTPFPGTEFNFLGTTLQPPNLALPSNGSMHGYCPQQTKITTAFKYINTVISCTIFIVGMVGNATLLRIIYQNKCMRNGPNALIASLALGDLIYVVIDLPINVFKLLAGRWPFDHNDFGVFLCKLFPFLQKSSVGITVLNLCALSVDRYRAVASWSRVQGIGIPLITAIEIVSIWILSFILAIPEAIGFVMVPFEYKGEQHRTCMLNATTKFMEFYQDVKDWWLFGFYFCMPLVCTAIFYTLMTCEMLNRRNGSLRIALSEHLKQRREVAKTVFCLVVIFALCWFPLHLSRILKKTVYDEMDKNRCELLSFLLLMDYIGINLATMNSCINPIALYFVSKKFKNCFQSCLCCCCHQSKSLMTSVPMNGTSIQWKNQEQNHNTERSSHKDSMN

Endothelin-1 receptor [2] = biological target: T2, Endothelin-1 receptor (Homo sapiens, UniProt P25101); experiment: Antagonist activity at ETA receptor (unknown origin)
T2 sequence (P25101 whole entry): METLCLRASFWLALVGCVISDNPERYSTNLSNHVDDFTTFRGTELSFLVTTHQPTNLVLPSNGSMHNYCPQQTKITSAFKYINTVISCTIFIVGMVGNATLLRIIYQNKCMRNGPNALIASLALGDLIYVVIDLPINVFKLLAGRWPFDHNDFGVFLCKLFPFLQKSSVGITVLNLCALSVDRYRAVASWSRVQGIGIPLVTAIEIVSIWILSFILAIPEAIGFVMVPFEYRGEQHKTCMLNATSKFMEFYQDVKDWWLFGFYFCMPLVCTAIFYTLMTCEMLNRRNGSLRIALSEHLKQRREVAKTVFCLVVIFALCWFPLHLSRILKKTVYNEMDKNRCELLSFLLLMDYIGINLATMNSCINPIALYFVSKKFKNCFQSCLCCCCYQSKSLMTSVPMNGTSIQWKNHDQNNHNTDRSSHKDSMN

Rattus norvegicus [3] = experiment: Antihypertensive activity in po dosed hypoxic pulmonary arterial Sprague-Dawley Rattus norvegicus (rat) model assessed as decrease in hypoxia-induced central vein pressure administered for 28 days measured on day 29 by hemodynamic analyzer relative to untreated control; type: functional, organism-based; settings: Artery
Rattus norvegicus [4] = experiment: Antihypertensive activity in po dosed hypoxic pulmonary arterial Sprague-Dawley Rattus norvegicus (rat) model assessed as decrease in hypoxia-induced right ventricular systolic pressure administered for 28 days measured on day 29 by hemodynamic analyzer relative to untreated control; type: functional, organism-based; settings: Heart right ventricle
Rattus norvegicus [5] = species on record: Rattus norvegicus; experiment: Selectivity Rattus norvegicus (rat)io of IC50 for ETB receptor in Sprague-Dawley Rattus norvegicus (rat) myocardium to IC50 for ETA receptor in Sprague-Dawley Rattus norvegicus (rat) myocardium; type: tissue-based
Endothelin-1 receptor [6] = biological target: T3, Endothelin-1 receptor (Rattus norvegicus, UniProt P26684); experiment: Displacement of [125I]ET-1 from ETA receptor in Sprague-Dawley Rattus norvegicus (rat) myocardium after 1 hr
T3 sequence (P26684 whole entry): T1 sequence (whole entry)

[7] = biological target: T4, Endothelin receptor type B (Rattus norvegicus, UniProt P21451); experiment: Displacement of [125I]ET-1 from ETB receptor in Sprague-Dawley Rattus norvegicus (rat) myocardium after 1 hr
T4 sequence (P21451 whole entry): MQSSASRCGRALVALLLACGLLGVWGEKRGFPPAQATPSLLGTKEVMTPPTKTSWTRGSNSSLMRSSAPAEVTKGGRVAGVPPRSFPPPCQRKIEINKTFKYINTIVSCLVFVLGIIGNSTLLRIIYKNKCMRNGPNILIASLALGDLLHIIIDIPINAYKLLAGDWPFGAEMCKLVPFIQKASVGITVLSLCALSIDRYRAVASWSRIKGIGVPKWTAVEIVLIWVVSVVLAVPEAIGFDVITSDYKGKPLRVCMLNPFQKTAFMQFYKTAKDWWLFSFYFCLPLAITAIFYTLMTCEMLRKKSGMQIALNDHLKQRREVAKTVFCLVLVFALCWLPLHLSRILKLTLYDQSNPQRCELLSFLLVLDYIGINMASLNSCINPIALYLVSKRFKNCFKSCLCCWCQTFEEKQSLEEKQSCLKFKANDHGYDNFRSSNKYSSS

Rattus norvegicus [8] = experiment: Antihypertensive activity in hypoxic pulmonary arterial Sprague-Dawley Rattus norvegicus (rat) model assessed as decrease in hypoxia-induced central vein pressure at 10 mg/kg, po administered for 28 days measured on day 29 by hemodynamic analyzer relative to untreated control; type: functional, organism-based; design: dose 10 mg/kg; settings: Artery
Rattus norvegicus [9] = experiment: Antihypertensive activity in hypoxic pulmonary arterial Sprague-Dawley Rattus norvegicus (rat) model assessed as decrease in hypoxia-induced right ventricular systolic pressure at 10 mg/kg, po administered for 28 days measured on day 29 by hemodynamic analyzer relative to untreated control; type: functional, organism-based; design: dose 10 mg/kg; settings: Heart right ventricle
Endothelin-1 receptor [10] = biological target: T2, Endothelin-1 receptor; experiment: Antagonist activity at Homo sapiens (human) ETA receptor

SMILES	inhibition [1] [%]	further results
CCCOc1cccc2oc(C(=O)O)c(C)c12	69.7	–
COc1cccc2oc(C(=O)O)c(C)c12	–	IC50 (Endothelin-1 receptor [2]): 11 µM
CCCCOc1cccc2oc(C(=O)O)c(C)c12	56.7	–
Cc1c(C(=O)O)oc2cccc(OCCOc3cccc(Cl)c3)c12	21.7	–
Cc1c(C(=O)O)oc2cccc(OC(C(=O)O)c3ccccc3)c12 (stereo not drawn)	29	–
Cc1c(C(=O)O)oc2cccc(OCCN3CCCC3)c12	34.1	Activity (Rattus norvegicus [3]): Dose-dependent effect; Activity (Rattus norvegicus [4]): Dose-dependent effect
Cc1c(C(=O)O)oc2cccc(OCc3ccc4nonc4c3)c12	70	Ratio IC50 (Rattus norvegicus [5]): 27; IC50 (Endothelin-1 receptor [6]): 0.039 µM; IC50 [7]: 1.07 µM
Cc1c(C(=O)O)oc2cccc(OCc3ccccc3)c12	40.7	IC50 (Endothelin-1 receptor [2]): 3.8 µM
CCOc1cccc2oc(C(=O)O)c(C)c12	61	–
CCCCCOc1cccc2oc(C(=O)O)c(C)c12	46.8	–
COC(=O)C1=C(C)NC(C)=C(C(=O)OC)C1c1ccccc1[N+](=O)[O-]	–	Activity (Rattus norvegicus [8]): Active; Activity (Rattus norvegicus [9]): Active
Cc1c(C(=O)O)oc2cccc(OC(CCC(=O)O)c3ccccc3)c12 (stereo not drawn)	44	–
Cc1c(C(=O)O)oc2cccc(OCc3ccc4nsnc4c3)c12	82.2	Ratio IC50 (Rattus norvegicus [5]): 40; IC50 (Endothelin-1 receptor [6]): 0.023 µM; IC50 [7]: 0.93 µM
CC(C)C[C@@H]1NC(=O)[C@@H](C(C)C)NC(=O)[C@@H]2CCCN2C(=O)[C@@H](CC(=O)O)NC(=O)[C@@H](Cc2c[nH]c3ccccc23)NC1=O [BQ-123] (cyclo(L[dW][dD]P[dV]))	68.1	IC50 (Endothelin-1 receptor [6]): 0.028 µM; IC50 (Endothelin-1 receptor [10]): 0.037 µM
Cc1c(C(=O)O)oc2cccc(OC/C=C/c3ccccc3)c12	50	–
Cc1ccc(OCCOc2cccc3oc(C(=O)O)c(C)c23)cc1	40.8	–
